{
  "source": "patent US20050137172A1",
  "about": "“Haloacetamide and azide substituted compounds and methods of use thereof” (priority 2003, published 2005)",
  "key": {"[1]": {"test_system": "DU145", "assay": "Cell growth inhibition (sulforhodamine B assay)", "assay_type": "cell-based", "conditions": "Homo sapiens, DU-145, 96 h, read-out: IC50 DU145", "protocol": "(§1) Prostate cancer cell lines were obtained from ATCC. All cells were grown in RPMI-1640 medium containing 2 mM L-glutamine supplemented with 10% fetal bovine serum (FBS) and maintained in a 5% CO2/95% air humidified atmosphere at 37° C.\n(§2) Cells were plated on 96-well plates and incubated with drug-containing culture medium (200 μL/well) for 4 (DU 145, PC-3, PPC-1, and TSU) or 6 (LNCaP) days. Medium was replaced with freshly prepared batches every other day during the incubation. At the end of drug treatment, an aliquot of 50 μL of cold (4° C.) trichloroacetic acid (TCA, 50%) was gently layered on the top of growth medium in each well to make a final TCA concentration of 10%. The mixtures were incubated at 4° C. for 1 hour, and then washed 5 times with tap water to remove TCA, growth medium, low-molecular-weight metabolites, and serum proteins. The plates were air dried overnight. Next, fixed cells were stained with 50 μL of SRB solution (0.4%, wt/vol) for 10 minutes. After staining, SRB solution was decanted, and plates were quickly rinsed 5 times with 1% acetic acid to remove unbound dye and air dried overnight. The cellular protein-bound SRB was then dissolved with 200 μL unbuffered Tris base (10 mM, pH 10.5) for 30 minutes on a rocking platform shaker, and absorbance at 540 nm was measured by a plate reader.\n(§3) Percentage of cell survival was calculated by absorbance at 540 nm in testing wells divided by absorbance in negative control wells (medium without the test compound). Percentages of cell survival versus drug concentrations were plotted and the concentration of drug that inhibited cell growth by 50% (IC50) was determined by nonlinear regression using WinNonlin (Pharsight Corporation, Mountain View, Calif.).\n(§4) METHODS: LNCaP, DU145, PC-3, TSU, and PPC-1 cells were cultured in 96-well plates and treated with increasing concentrations of the compound of interest for 4 days. Cell survival was determined by the sulforhodamine B assay and was plotted as a percentage of control (drug-free wells) versus drug concentration. The concentration of drug that inhibited cell growth by 50% (IC50) was determined by nonlinear regression. Known anticancer drugs were used as cytotoxic positive controls."}, "[2]": {"test_system": "LNCaP", "assay": "Cell growth inhibition (sulforhodamine B assay)", "assay_type": "cell-based", "conditions": "Homo sapiens, read-out: IC50 LNCaP", "protocol": "as §1, §2, §3, §4"}, "[3]": {"test_system": "PC-3", "assay": "Cell growth inhibition (sulforhodamine B assay)", "assay_type": "cell-based", "conditions": "Homo sapiens, PC-3, 96 h, read-out: IC50 PC-3", "protocol": "as §1, §2, §3, §4"}, "[4]": {"test_system": "PPC-1", "assay": "Cell growth inhibition (sulforhodamine B assay)", "assay_type": "cell-based", "conditions": "Homo sapiens, PPC-1, 96 h, read-out: IC50 PPC-1", "protocol": "as §1, §2, §3, §4"}, "[5]": {"test_system": "TSU", "assay": "Cell growth inhibition (sulforhodamine B assay)", "assay_type": "cell-based", "conditions": "Homo sapiens, 96 h, read-out: IC50 TSU", "protocol": "as §1, §2, §3, §4"}, "[6]": {"test_system": "LNCaP cells", "assay": "Growth curve (trypan blue cell count, 120 h)", "assay_type": "cell-based, human", "protocol": "(§5) MATERIALS: DMSO is the vehicle control and the solvent for Compound A and Compound B.\n(§6) METHODS: Cells were plated at 5-10×10^4 cells/well in five 6-well plates and incubated at 37° C., 5% CO2 for 24 h to allow the cells sufficient time to attach and be in log phase growth at the start of the experiment. The media was aspirated from four of the plates and replaced with media containing vehicle control (DMSO) or drug dissolved in DMSO. The total volume of DMSO/drug added to each well was equal to 0.1% of the media volume in each well. LNCaP, PC-3, MCF-7, and CV-1 cells were treated with vehicle control, and increasing concentrations of Compound A and Compound B (0.01, 0.05, 0.1, 0.5, 1.0, 5.0, and 10.0 μM). Three wells were treated with the same concentration of the drugs or DMSO for each treatment condition listed above. The cells from the remaining 6-well plate were collected and counted to determine plating efficiency. The 6-well plates containing DMSO/drug were incubated for 120 h at 37° C., 5% CO2. After 120 h, the media from each well was collected along with trypsinized cells and centrifuged at 150×g for 4 min. The cells were resuspended in 1 mL of media, from which 90 μl was taken and combined with 10 μl trypan blue for counting on a hemacytometer."}, "[7]": {"test_system": "LNCaP cells", "assay": "TUNEL assay (apoptosis, DNA fragmentation)", "assay_type": "cell-based, human", "conditions": "LNCaP cells exposed for 24 hours, relative to 0.1% DMSO vehicle control", "protocol": "MATERIALS: In Situ Cell Death Detection Kit, Fluorescein (Roche).\nMETHODS: DNA fragmentation of apoptotic cells was monitored by the TUNEL assay as described by the supplier. Briefly, LNCaP cells were plated at 2×10^5 cells/well in 2-well chamber slides and incubated at 37° C., 5% CO2 for 24 h to allow the cells sufficient time to attach and be in log phase growth at the start of the experiment. The media was aspirated and replaced with media containing vehicle control (DMSO) or drug dissolved in DMSO. The total volume of DMSO/drug added to each well was equal to 0.1% of the media volume in each well. LNCaP cells were treated with vehicle control, and increasing concentrations of Compound A and Compound B ([…]) for 24-48 h. Two wells were treated with the same concentration of the drugs or DMSO for each treatment condition listed above. The media was collected along with the trypsinized cells and centrifuged at 150 ×g for 4 min. The cells were resuspended in 50 μl PBS, pipetted onto poly-lysine coated slides, and then fixed in 4% methanol-free formaldehyde in PBS (H 7.4) for 25 min at 4° C. Cells were permeabilized in 0.2% Triton X-100 in PBS for 5 min at room temperature. […] Green and red fluorescence emissions were observed microscopically using 520 nm and >620 nm filters, respectively."}, "[8]": {"test_system": "five prostate cancer cell lines", "assay": "Cell growth inhibition (sulforhodamine B assay), all five lines together", "assay_type": "cell-based, human", "conditions": "for IC50 values in inhibiting the growth of all of five prostate cancer cell lines: DU 145, PC-3, TSU, PPC-1, LNCaP; for IC50s from one-day treatment versus 4 or 6 days treatment: comparison of treatment durations", "protocol": "as §1, §2, §3, §4"}, "[9]": {"test_system": "MCF-7 cells", "assay": "Growth curve (trypan blue cell count, 120 h)", "assay_type": "cell-based", "conditions": "FIG. 2B", "protocol": "as §5, §6"}, "[10]": {"conditions": "sulforhodamine B assay, 4 days treatment"}, "[11]": {"conditions": "sulforhodamine B assay, 4 or 6 days treatment"}},
  "note": "Where two headings read alike, the source gives them in different places.",
  "data": [
    {"smiles": "C[C@](O)(COc1ccc(NC(=O)C(F)(F)F)cc1)C(=O)Nc1ccc([N+](=O)[O-])c(C(F)(F)F)c1", "values": [
      {"measurement": "melting point", "result": "58 to 60", "unit": "°C"}
    ]},
    {"smiles": "C[C@](O)(COc1ccc(NC(=O)CI)cc1)C(=O)Nc1ccc(C#N)c(C(F)(F)F)c1", "note": "(hydrate or solvate)", "values": [
      {"measurement": "melting point", "result": "78 to 80", "unit": "°C"}
    ]},
    {"smiles": "C[C@](O)(COc1ccc(NC(=O)C(Cl)(Cl)Cl)cc1)C(=O)Nc1ccc([N+](=O)[O-])c(C(F)(F)F)c1", "note": "(hydrate or solvate)", "values": [
      {"measurement": "melting point", "result": "59 to 61", "unit": "°C"}
    ]},
    {"smiles": "C[C@](O)(COc1ccc(N2C(=O)C=CC2=O)cc1)C(=O)Nc1ccc([N+](=O)[O-])c(C(F)(F)F)c1", "note": "(hydrate or solvate)", "values": [
      {"measurement": "melting point", "result": "82 to 84", "unit": "°C"}
    ]},
    {"smiles": "O=c1[nH]cc(F)c(=O)[nH]1", "note": "[Compound 5-FU, fluorouracil, reference compound]", "values": [
      {"measurement": "IC50", "setting": "[1]; [10]", "result": "2.6 ± 0.9", "unit": "µM"},
      {"measurement": "IC50", "setting": "[2]; [11]", "result": "0.9 ± 0.3", "unit": "µM"},
      {"measurement": "IC50", "setting": "[3]; [10]", "result": "12.1 ± 0.9", "unit": "µM"},
      {"measurement": "IC50", "setting": "[4]; [10]", "result": "5.5 ± 0.3", "unit": "µM"},
      {"measurement": "IC50", "setting": "[5]; [10]", "result": "2.9 ± 0.9", "unit": "µM"}
    ]},
    {"smiles": "C[C@](O)(COc1ccc(NC(=O)CBr)cc1)C(=O)Nc1ccc([N+](=O)[O-])c(C(F)(F)F)c1", "note": "[Compound A]", "values": [
      {"measurement": "IC50", "setting": "[1]; [10]", "result": "1.3 ± 0.3", "unit": "µM"},
      {"measurement": "IC50", "setting": "[2]; [11]", "result": "1.1 ± 0.2", "unit": "µM"},
      {"measurement": "IC50", "setting": "[3]; [10]", "result": "2.41 ± 0.6", "unit": "µM"},
      {"measurement": "IC50", "setting": "[4]; [10]", "result": "1.1 ± 0.1", "unit": "µM"},
      {"measurement": "IC50", "setting": "[5]; [10]", "result": "0.4 ± 0.3", "unit": "µM"},
      {"measurement": "Growth inhibitory activity across cell lines (selectivity)", "setting": "[6]; LNCaP versus PC-3, MCF-7 and CV-1 cells, FIG. 2A", "result": "non-selective growth inhibitory activity"},
      {"measurement": "Apoptosis (green fluorescence, fragmented DNA) in TUNEL assay", "setting": "[7]", "result": "exhibit green fluorescence"},
      {"measurement": "IC50 values in inhibiting the growth of all of five prostate cancer cell lines", "setting": "[8]", "result": "low micro-molar range"},
      {"measurement": "IC50s from one-day treatment versus 4 or 6 days treatment", "setting": "[8]", "result": "did not show significant difference"}
    ]},
    {"smiles": "C[C@](O)(COc1ccc(NC(=O)CCl)cc1)C(=O)Nc1ccc([N+](=O)[O-])c(C(F)(F)F)c1", "note": "[Compound B]", "values": [
      {"measurement": "IC50", "setting": "[1]; [10]", "result": "0.9 ± 0.1", "unit": "µM"},
      {"measurement": "IC50", "setting": "[2]; [11]", "result": "4.4 ± 0.8", "unit": "µM"},
      {"measurement": "IC50", "setting": "[3]; [10]", "result": "4.2 ± 0.2", "unit": "µM"},
      {"measurement": "IC50", "setting": "[4]; [10]", "result": "1.8 ± 0.1", "unit": "µM"},
      {"measurement": "IC50", "setting": "[5]; [10]", "result": "1.4 ± 0.4", "unit": "µM"},
      {"measurement": "Sensitivity of LNCaP cells relative to PC-3 or CV-1 cells", "setting": "[6]; growth curve, FIG. 2B", "result": "approximately 10 fold"},
      {"measurement": "Concentration at which MCF-7 cells are sensitive", "setting": "[9]", "result": "> 5", "unit": "µM"},
      {"measurement": "Apoptosis (green fluorescence, fragmented DNA) in TUNEL assay", "setting": "[7]", "result": "similar"},
      {"measurement": "IC50 values in inhibiting the growth of all of five prostate cancer cell lines", "setting": "[8]", "result": "low micro-molar range"},
      {"measurement": "IC50s from one-day treatment versus 4 or 6 days treatment", "setting": "[8]", "result": "did not show significant difference"}
    ]},
    {"smiles": "N[C@@H](Cc1ccc(N(CCCl)CCCl)cc1)C(=O)O", "note": "[Melphalan, reference compound]", "values": [
      {"measurement": "IC50", "setting": "[1]", "result": "31 ± 4.8", "unit": "µM"},
      {"measurement": "IC50", "setting": "[2]", "result": "10.3 ± 0.1", "unit": "µM"},
      {"measurement": "IC50", "setting": "[3]", "result": "30.4 ± 3.1", "unit": "µM"},
      {"measurement": "IC50", "setting": "[4]", "result": "16.2 ± 1.8", "unit": "µM"},
      {"measurement": "IC50", "setting": "[5]", "result": "4 ± 0.2", "unit": "µM"}
    ]}
  ]
}
